Measured values as given in patent publication US8058228B2, “Leptin peptide antagonists” (Boston Biomedical Research Institute, priority 2004, dated 2011).
Entries after “also recorded” stand apart in the source; their conditions may differ.

Legend:
Format in all cases: cell-based
OB-R [1] = test: OB-R expression by rabbit endometrial cells (immunocytochemistry, Western blot); settings: cultures of rESC or rEEC
Description: Rabbit endometrial cells (5×10^5 cells/well) were cultured for 5-9 days in DMEM-MCDB105 (3:1) medium containing 10% fetal bovine serum (FBS), 5 μg/ml insulin, 1% amphopthericin B, 100 μg/ml streptomycin and 100 U/ml penicillin until confluent layers were obtained. The cells were washed twice with 100 mM phosphate saline buffer (PBS) −2% BSA (w/v), pH 7.2 and cultured for an additional 2 days in the same medium but without FBS (basal medium). This procedure was performed to reduce any effects of cytokines from FBS on the phosphorylation rate of Stat3 as well as the expression of other cytokines and their receptors. […]
The expression of OB-R was assessed by incubation of rEC for 1 h at room temperature with goat antibodies directed towards the amino terminal ends of human OB-R (R&D system) diluted 1:80 in buffer A.
(§1) After culture in the presence of leptin, LPAs or antibodies, the endometrial cells were washed with ice-cold PBS and lysed by homogenization on ice with lysis buffer [[…] Tris, pH 7.4, containing […] NaCl, 2 mM EDTA, 10% glycerol, 50 mM β-glycerophosphate, […] NaF, 1% Nonidet P-40, 2 mM phenyl-methylsulfonyl fluoride, 2 mM sodium orthovanadate, 100 μM antipain, 0.1 mg/ml trypsin inhibitor and protease cocktail inhibitor 1:50 (Sigma)]. […] Protein concentrations were determined using the Bradford protein assay (BioRad Laboratories Inc., Hercules, Calif.). […]

OB-R [2] = test: IL-1R tl expression by rabbit endometrial cells (immunocytochemistry, Western blot); settings: for effect on leptin up-regulation of IL-1R tl expression: LPA-2 30 and 120 nM, LPA-2Sc 120 nM, antibody 20 μg/ml
Description: (§2) Rabbit endometrial cells (5×10^5 cells/well) were cultured for 5-9 days in DMEM-MCDB105 (3:1) medium containing 10% fetal bovine serum (FBS), 5 μg/ml insulin, 1% amphopthericin B, 100 μg/ml streptomycin and 100 U/ml penicillin until confluent layers were obtained. The cells were washed twice with 100 mM phosphate saline buffer (PBS) −2% BSA (w/v), pH 7.2 and cultured for an additional 2 days in the same medium but without FBS (basal medium). This procedure was performed to reduce any effects of cytokines from FBS on the phosphorylation rate of Stat3 as well as the expression of other cytokines and their receptors. Cells were washed as described before and cultured in basal medium containing leptin (0-10 nM), OB-R antibody (1-20 μg/ml) and/or LPA-2 peptides (0-300 nM). Cultures were stopped at 24 h and the cells were used for immunocytochemistry, binding studies and western blot analysis. The conditioned media were collected, lyophilized and stored at −80° C. for ELISA determinations. Duplicate wells were run for each treatment and the experiments repeated at least three times with different cell preparations from different rabbits. Controls were the same cellular preparations cultured in basal medium containing non-specific goat IgGs and LPA-2Sc.
The rabbit endometrial cells were cultured as described above in duplicate on 8-well glass-bottom culture plates (Nalgene Nunc International, Naperville, Ill.) and fixed with methanol at −20° C. for 20 min for immunocytochemical studies. All the antibodies tested were diluted in PBS-2% BSA (w/v; buffer A).
Anti IL-1R tl (1 μg/ml), anti LIF-R (2 μg/ml), anti vimentin (1:50), anti cytokeratin (1:50) and anti p-Stat3 (1 μg/ml) antibodies were used to assess the expression of the respective antigens by rEEC and rESC cultures. After incubation with primary antibodies the cells were incubated with a streptavidin-biotin-alkaline phosphatase system according to the manufacturer directions (Vectastain, ABC-AP kit, Vector Laboratories, Burlingame, Calif.) and counter-stained with hematoxylin (Dako). Negative controls included cell preparations in which the primary antibodies were substituted by irrelevant species matched IgGs.
as §1

OB-R [3] = test: LIF secretion by rabbit endometrial cell cultures (ELISA)
Description: as §2
IL-1β from rabbits and humans have sequence differences, but no data is available concerning the sequence of rabbit LIF. In addition, there are no commercial kits for measuring rabbit IL-1β or LIF. […] Conditioned media (n=3 per treatment) from rESC and rEEC cultured in the experimental conditions described above were used to quantify the secretion of LIF by ELISA (LIF-Quantikine®, R&D Systems). Standards, controls, and samples were assayed in duplicate. The intra- and interassay coefficients of variations were between 0.7-12% and 3-7%, respectively.

Row | Substance | expression of OB-R (OB-R [1]) | effect on basal expression of IL-1R tl (OB-R [2]; rESC, LPA-2 120 nM, Western blot) | effect on leptin up-regulation of IL-1R tl expression (OB-R [2]; rESC, leptin 3 nM) | effect on leptin induction of LIF secretion (OB-R [3]; rEEC, leptin 3 nM with LPA-2 3 to 300 nM, OB-R antibody 20 μg/ml) | effect on leptin-induced LIF secretion at the higher leptin dose (OB-R [3]; rEEC, leptin 10 nM, equimolar LPA-2 (10 nM)) | IL-1R tl expression after leptin (OB-R [2]; rabbit endometrial cells, leptin 3 nM) | LIF secretion after leptin (OB-R [3]; rEEC and rESC, more evident in rEEC)
1 | SRNVIQISNDLENLRDLLHVLAFSKS [LPA-2, 26 amino acid peptide, residues 70-95 of helix III of the human leptin molecule; leptin peptide antagonist] | did not affect the expression of OB-R | inhibited the basal expression of IL-1R tl | completely abolished; also recorded: significantly decreased | significantly inhibited the leptin (3 nM) induction of LIF secretion | effectively inhibited; also recorded: completely inhibited |  | 
2 | leptin: human recombinant leptin (R&D Systems), OB-R ligand used as stimulus | did not affect the expression of OB-R |  |  |  |  | substantially up-regulates IL-1R tl expression | increased LIF secretion in a dose-dependent manner
3 | VAEVLNRSDLIQRISFSLDLNNSKLH [LPA-2Sc, scrambled version of LPA-2, negative control, reference compound] |  |  | did not alter the leptin effect on IL-1R tl expression |  |  |  | 
